Converted amounts (≈) assume the structure as drawn. The source made the active and inactive calls. The rule behind the calls is not given here.
Key:
Staphylococcus aureus [1] = assay: Antibacterial activity against methicillin-resistant Staphylococcus aureus ATCC 33591 assessed as bacterial growth inhibition measured after 20 hrs by broth dilution method; format: functional
Staphylococcus aureus [2] = assay: Antibacterial activity against methicillin-resistant Staphylococcus aureus ATCC 43300 assessed as bacterial growth inhibition measured after 20 hrs by broth dilution method; format: functional
[3] = tested on: Staphylococcus epidermidis; assay: Antibacterial activity against Staphylococcus epidermidis ATCC 51625 assessed as bacterial growth inhibition measured after 20 hrs by broth dilution method; format: functional
Streptococcus pneumoniae [4] = assay: Antibacterial activity against penicillin-resistant Streptococcus pneumoniae ATCC 51916 assessed as bacterial growth inhibition measured after 20 hrs by broth dilution method; format: functional
Staphylococcus aureus [5] = assay: Ratio of MBC to MIC against methicillin-resistant Staphylococcus aureus ATCC 33591; format: functional
[6] = tested on: Staphylococcus epidermidis; assay: Ratio of MBC to MIC against Staphylococcus epidermidis ATCC 51625; format: functional
Streptococcus pneumoniae [7] = assay: Ratio of MBC to MIC against penicillin-intermediate Streptococcus pneumoniae ATCC 49619; format: functional
Staphylococcus aureus [8] = assay: Antibacterial activity against methicillin-resistant Staphylococcus aureus clinical isolate 202311772 assessed as bacterial growth inhibition measured after 20 hrs by broth dilution method; format: functional
Staphylococcus aureus [9] = assay: Antibacterial activity against methicillin-resistant Staphylococcus aureus clinical isolate 202313160 assessed as bacterial growth inhibition measured after 20 hrs by broth dilution method; format: functional
[10] = tested on: Staphylococcus epidermidis; assay: Antibacterial activity against methicillin-resistant Staphylococcus epidermidis clinical isolate 202409139 assessed as bacterial growth inhibition measured after 20 hrs by broth dilution method; format: functional
[11] = tested on: Staphylococcus epidermidis; assay: Ratio of MBC to MIC against methicillin-resistant Staphylococcus epidermidis clinical isolate 202409139; format: functional
Staphylococcus aureus [12] = assay: Bactericidal activity against methicillin-resistant Staphylococcus aureus ATCC 33591 at 4 to 8 times MIC measured after 6 to 8 hrs by time kill assay; format: functional, organism-based; details: time 6-8 hrs
Staphylococcus aureus [13] = assay: Bactericidal activity against methicillin-resistant Staphylococcus aureus ATCC 33591 measured upto 24 hrs by time kill assay; format: functional, organism-based
Staphylococcus aureus [14] = assay: Drug resistance, ratio of MIC for Staphylococcus aureus ATCC 33591 after 8 days to MIC for methicillin-resistant Staphylococcus aureus ATCC 33591 after initial exposure; format: functional; details: time 8 day
Staphylococcus aureus [15] = assay: Antibacterial activity against methicillin resistant Staphylococcus aureus ATCC 33591 assessed as post antibiotic effect at 2 times MIC by time kill assay; format: functional
Staphylococcus aureus [16] = assay: Antibiofilm activity in methicillin-resistant Staphylococcus aureus ATCC 33591 assessed as inhibition of biofilm formation at 1/16 times MIC measured after 48 hrs by crystal violet staining based analysis relative to control; format: functional; design: scale not given: the % may be the effect or the level left
Staphylococcus aureus [17] = assay: Antibiofilm activity in methicillin-resistant Staphylococcus aureus ATCC 33591 assessed as inhibition of biofilm formation measured after 48 hrs by crystal violet staining based analysis relative to control; format: functional, organism-based
Staphylococcus aureus [18] = assay: Antibiofilm activity in methicillin-resistant Staphylococcus aureus ATCC 33591 assessed as disruption of preformed biofilm at 4 to 16 times MIC measured after 24 hrs by crystal violet staining based assay relative to control; format: functional
Staphylococcus aureus [19] = assay: Antibacterial activity against Staphylococcus aureus ATCC 25923 assessed as reduction in GFP expression at 1 to 4 times MIC measured after 1 hr by fluorescence microscopy based analysis; format: functional, organism-based
Staphylococcus aureus [20] = assay: Induction of morphological changes in methicillin-resistant Staphylococcus aureus ATCC 33591 assessed as appearance of wrinkled cell surface at 1 to 4 times MIC measured after 4 hrs by SEM analysis; format: functional, organism-based
HepG2 = assay: Cytotoxicity against human HepG2 cells at 0 to 40 ug/ml measured after 24 hrs by MTT assay relative to control; format: functional; details: dose 0-40 µg/ml
A549 = assay: Cytotoxicity against human A549 cells at 0 to 40 ug/ml measured after 24 hrs by MTT assay relative to control; format: functional; details: dose 0-40 µg/ml
L02 = assay: Cytotoxicity against human HL7702 cells at 0 to 40 ug/ml measured after 24 hrs by MTT assay relative to control; format: toxicity, cell-based; details: l02, 24 h, dose 0-40 µg/ml
[21] = Hemolytic activity in rabbit RBC assessed as hemolysis rate at 0 to 100 ug/ml incubated for 1 hr by microplate reader analysis relative to control; format: toxicity, cell-based, Oryctolagus cuniculus, Erythrocyte; details: rabbit red blood cells, dose 0-100 µg/ml, read-out: Activity
[22] = Hemolytic activity in rabbit RBC assessed as hemolysis rate at 200 ug/ml incubated for 1 hr by microplate reader analysis relative to control; format: toxicity, cell-based, Oryctolagus cuniculus, Erythrocyte; details: rabbit red blood cells, at 200 µg/mL, read-out: Activity
Staphylococcus aureus [23] = assay: Antibacterial activity against methicillin-resistant Staphylococcus aureus ATCC 33591 infected in female C57 mouse systemic infection model assessed as survival rate at 20 mg/kg, po measured upto 7 days relative to control; format: functional; details: ATCC 33591, 168 h, time <= 7 day
Staphylococcus aureus [24] = assay: Antibacterial activity against methicillin-resistant Staphylococcus aureus ATCC 33591 infected in female C57 mouse systemic infection model assessed as effective dose; format: functional
Staphylococcus aureus [25] = assay: (§1) Antibacterial activity against methicillin-resistant Staphylococcus aureus ATCC 33591 infected in female C57 mouse systemic infection model assessed as reduction in bacterial load in kidney at 40 mg/kg, iv administered twice daily and measured after 7 days; format: functional; details: time 7 day
Staphylococcus aureus [26] = assay: Antibacterial activity against methicillin-resistant Staphylococcus aureus ATCC 33591 infected in female C57 mouse systemic infection model assessed as reduction in bacterial load in spleen at 40 mg/kg, iv administered twice daily and measured after 7 days; format: functional; details: time 7 day
[27] = Half life in mouse at 5 mg/kg, iv measured after 8 hrs; format: ADME, organism-based; details: in vivo
[28] = AUC (0 to t) in mouse at 5 mg/kg, iv measured after 8 hrs; format: ADME, organism-based; details: in vivo
Staphylococcus aureus [29] = assay: as §1, with “number of inflammatory cells” for “bacterial load”, “heart” for “kidney”, “days by H and E staining based analysis” for “days”; format: functional, organism-based; details: time 7.0 day
Staphylococcus aureus [30] = assay: (§2) Antibacterial activity against methicillin-resistant Staphylococcus aureus ATCC 33591 infected in female C57 mouse systemic infection model assessed as restoration of cell morphology at 40 mg/kg, iv administered twice daily and measured after 7 days by H and E staining based analysis; format: functional, organism-based; details: time 7.0 day
Staphylococcus aureus [31] = assay: as §2, with “reduction” for “restoration”, “of mononuclear” for “of”, “infiltration in liver” for “morphology”; format: functional, organism-based; details: time 7.0 day
Staphylococcus aureus [32] = assay: (§3) Antibacterial activity against methicillin-resistant Staphylococcus aureus ATCC 33591 infected in female C57 mouse systemic infection model assessed as reduction of edema in kidney at 40 mg/kg, iv administered twice daily and measured after 7 days by H and E staining based analysis; format: functional, organism-based; details: time 7.0 day
Staphylococcus aureus [33] = assay: Antibacterial activity against methicillin-resistant Staphylococcus aureus ATCC 33591 infected in female C57 mouse systemic infection model assessed as reduction in tubular necrosis in kidney at 40 mg/kg, iv administered twice daily and measured after 7 days by H and E staining based analysis; format: functional, organism-based; details: time 7.0 day
Staphylococcus aureus [34] = assay: as §3, with “in inflammatory infiltration” for “of edema”; format: functional, organism-based; details: time 7.0 day
Staphylococcus aureus [35] = assay: as §3, with “reduction” for “reduction of edema”, “disordered myocardial fibers in heart” for “kidney”; format: functional, organism-based; details: time 7.0 day

With `C=C[C@]1(C)C[C@@H](OC(=O)CSc2cc(=O)oc3cc(OC)ccc23)[C@]2(C)[C@H](C)CC[C@]3(CCC(=O)[C@H]32)[C@@H](C)[C@@H]1O` as the compound, how does the MIC (Staphylococcus aureus [1]) read?
Its MIC is 0.031 µg/mL (≈ 0.0545 µM).

And the MIC (Staphylococcus aureus [2])?
The MIC was 0.031 µg/mL (≈ 0.0545 µM).

What about the MIC [3] of the same compound?
The MIC was 0.016 µg/mL (≈ 0.0281 µM).

What about the MIC (Streptococcus pneumoniae [4]) of the same compound?
Its MIC is 0.063 µg/mL (≈ 0.111 µM).

What about the Ratio (Staphylococcus aureus [5]) of the same compound?
The Ratio was 2.

And the Ratio [6]?
Its Ratio is 4.

What about the Ratio (Streptococcus pneumoniae [7]) of the same compound?
The Ratio was greater than 4.

What about the MIC (Staphylococcus aureus [8]) of the same compound?
Its MIC is 0.031 µg/mL (≈ 0.0545 µM).

What about the MIC (Staphylococcus aureus [9]) of the same compound?
The MIC was 0.063 µg/mL (≈ 0.111 µM).

What about the MIC [10] of the same compound?
The MIC was 0.031 µg/mL (≈ 0.0545 µM).

What about the Ratio [11] of the same compound?
The Ratio was 2.

What about the Activity (Staphylococcus aureus [12]) of the same compound?
The Activity was “Active”.

What about the Activity (Staphylococcus aureus [13]) of the same compound?
Its Activity is “Dose-dependent-effect”.

And the “fold change (FC)” value (Staphylococcus aureus [14])?
Its value is 4.

What about the PAE (Staphylococcus aureus [15]) of the same compound?
The PAE was 1.51 h.

And the Activity (Staphylococcus aureus [16])?
Its Activity is 80.67%.

And the Activity (Staphylococcus aureus [17])?
Its Activity is “Dose-dependent-effect”.

And the Activity (Staphylococcus aureus [18])?
The Activity was 68.29%.

And the Activity (Staphylococcus aureus [19])?
The Activity was “Active”.

What about the Activity (Staphylococcus aureus [20]) of the same compound?
The Activity was “Active”.

And the Activity (HepG2)?
Its Activity is greater than 85%.

And the Activity (A549)?
Its Activity is greater than 85%.

And the Activity (L02)?
Its Activity is greater than 85%.

And the hemolysis at 1 h [21]?
Its hemolysis at 1 h is less than 4%.

What about the hemolysis at 1 h, 200 ug/ml [22] of the same compound?
The hemolysis at 1 h, 200 ug/ml was less than 8%.

What about the survival at 20 mg/kg (Staphylococcus aureus [23]) of the same compound?
Its survival at 20 mg/kg is 60%.

What about the ED50 (Staphylococcus aureus [24]) of the same compound?
The ED50 was 11.2 mg/kg.

And the Activity (Staphylococcus aureus [25])?
Its Activity is 1.91 log10CFU/g.

What about the Activity (Staphylococcus aureus [26]) of the same compound?
Its Activity is 1.68 log10CFU/g.

What about the half-life [27] of the same compound?
The half-life was 1.52 h.

And the AUCt [28]?
Its AUCt is 1740 ng·h/mL.

And the Activity (Staphylococcus aureus [29])?
The Activity was “Active”.

What about the Activity (Staphylococcus aureus [30]) of the same compound?
The Activity was “Active”.

What about the Activity (Staphylococcus aureus [31]) of the same compound?
The Activity was “Active”.

What about the Activity (Staphylococcus aureus [32]) of the same compound?
Its Activity is “Active”.

And the Activity (Staphylococcus aureus [33])?
The Activity was “Active”.

What about the Activity (Staphylococcus aureus [34]) of the same compound?
Its Activity is “Active”.

And the Activity (Staphylococcus aureus [35])?
The Activity was “Active”.

Source: ChEMBL document CHEMBL6078666, “Discovery of Novel Coumarin Pleuromutilin Derivatives as Potent Anti-MRSA Agents” (J Med Chem, 2024)
